Source: patent US4975418A, “Therapeutically active compositions of pseudo-peptide of glutamyl-aspartic acid” (Centre National de la Recherche Scientific (CNRS), priority 1986, dated 1990)

Test system: SWISS mouse
Assay: convulsive crises induced by intraperitoneal pentylenetetrazole in the SWISS mouse
Format: in vivo
Conditions: given after pentylenetetrazole about 85 mg/kg i.p.
Description: During the first stages of the preparation and development of epileptic drugs it is necessary to generate experimental convulsive crises in an animal. The experimental convulsive crises make it possible to identify anticonvulsants, the anti-epileptic properties of which will be subsequently verified.
That is the reason why convulsive crises are induced in the SWISS mouse by the intraperitoneal injection of pentylenetetrazole at a dose of about 85 mg/kg.
Pentylenetetrazole is a bulbar excitant which, at this dose, causes convulsive crises in the mouse and the rabbit in a classical fashion with several well-characterized stages.
The subsequent intraperitoneal administration of the substance of formula I according to the invention brought about a suppression of these crises under the following conditions:
The subsequent intraperitoneal administration of N-γ-D-glutamyl-D-aspartic was also carried out and brought about the suppression of crises under the following conditions: […]

[1] = dose 285 nmol/kg intraperitoneal

SMILES | suppression of crises, % of the animals (dose 71 nmol/kg intraperitoneal) [%] | suppression of crises, % of the animals [1] [%] | suppression of crises, % of the animals (dose 142.5 nmol/kg intraperitoneal) [%] | suppression of crises, % of the animals (dose 570 nmol/kg intraperitoneal) [%]
N[C@H](CCC(=O)N[C@H](CC(=O)O)C(=O)O)C(=O)O [N-γ-D-glutamyl-D-aspartic, N-γ-D-glutamyl-D-aspartic acid] | 40 | 60 |  | 
N[C@@H](CCC(=O)N[C@@H](CC(=O)O)C(=O)O)C(=O)O [formula I, N-γ-L-glutamyl-L-aspartate] |  | 50 | 50 | 70
